# Experimental data as given in patent US9113629B2, “4-amino-6-(4-substituted-phenyl)-picolinates and 6-amino-2-(4-substituted-phenyl)-pyrimidine-4-carboxylates and their use as herbicides” (DOW AGROSCIENCES LLC, priority 2013, dated 2015).
# Where two headings read alike, the source gives them in different places.
# Columns and labels:
# [1] = test system: Key Broadleaf Weed and Crop Species; test: Post-emergent Test II herbicidal activity (Table 5); type: in vivo; conditions: post-emergence, 336 h, 14 days after application; for pest or weed control at 70 g/ha: application rate 70 g ai/ha; for pest or weed control at 140 g/ha: application rate 140 g ai/ha
# Protocol: (§1) Post-emergent Test II: Seeds or nutlets of the desired test plant species were planted in Sun Gro Metro-Mix® 360 planting mixture, which typically has a pH of 6.0 to 6.8 and an organic matter content of about 30 percent, in plastic pots with a surface area of 64 square centimeters. When required to ensure good germination and healthy plants, a fungicide treatment and/or other chemical or physical treatment was applied. The plants were grown for 7-21 d in a greenhouse with an approximate 15 h photoperiod which was maintained at about 23-29° C. during the day and 22-28° C. during the night. Nutrients and water were added on a regular basis and supplemental lighting was provided with overhead metal halide 1000-Watt lamps as necessary. The plants were employed for testing when they reached the first or second true leaf stage.
# (§2) A weighed amount, determined by the highest rate to be tested, of each test compound was placed in a 25 mL glass vial and was dissolved in 4 mL of a 97:3 v/v mixture of acetone and DMSO to obtain concentrated stock solutions. […] The concentrated stock solutions obtained were diluted with 20 mL of an aqueous mixture containing acetone, water, isopropyl alcohol, DMSO. Atplus 411F crop oil concentrate, and Triton® X-155 surfactant in a 48.5:39:10:1.5:1.0:0.02 v/v ratio to obtain spray solutions containing the highest application rates. Additional application rates were obtained by serial dilution of 12 mL of the high rate solution into a solution containing 2 mL of 97:3 v/v mixture of acetone and DMSO and 10 mL of an aqueous mixture containing acetone, water, isopropyl alcohol, DMSO, Atplus 411F crop oil concentrate, and Triton X-155 surfactant in a 48.5:39:10:1.5:1.0:0.02 v/v ratio to obtain ½×, ¼×, ⅛× and 1/16× rates of the high rate. Compound requirements are based upon a 12 mL application volume at a rate of 187 liters per hectare (L/ha). Formulated compounds were applied to the plant material with an overhead Mandel track sprayer equipped with 8002E nozzles calibrated to deliver 187 L/ha over an application area of 0.503 square meters at a spray height of 18 inches (43 cm) above the average plant canopy height. Control plants were sprayed in the same manner with the solvent blank.
# (§3) The treated plants and control plants were placed in a greenhouse as described above and watered by subirrigation to prevent wash-off of the test compounds. After 14 d, the condition of the test plants as compared with that of the untreated plants was determined visually and scored on a scale of 0 to 100 percent where 0 corresponds to no injury and 100 corresponds to complete kill.
# [2] = test system: Key Grass and Sedge Weeds as well as Grass Crops; test: Post-emergent Test II herbicidal activity (Table 6); type: in vivo; conditions: post-emergence, 336 h; for pest or weed control at 70 g/ha: 70 g ai/ha; for pest or weed control at 140 g/ha: 140 g ai/ha
# Protocol: as §1, §2, §3
# [3] = ABUTH: velvetleaf (Abutilon theophrasti), read-out: Visual Growth Reduction (%) 14 Days After Application, ABUTH
# [4] = AMARE: redroot pigweed (Amaranthus retroflexus), read-out: Visual Growth Reduction (%) 14 Days After Application, AMARE
# [5] = BRSNN: oilseed-rape, canola (Brassica napus), read-out: Visual Growth Reduction (%) 14 Days After Application, BRSNN
# [6] = EPHHL: wild poinsettia (Euphorbia heterophylla), read-out: Visual Growth Reduction (%) 14 Days After Application, EPHHL
# [7] = HELAN: sunflower (Helianthus annuus), read-out: Visual Growth Reduction (%) 14 Days After Application, HELAN
# [8] = VIOTR: wild pansy (Viola tricolor), read-out: Visual Growth Reduction (%) 14 Days After Application, VIOTR
# [9] = CYPES: yellow nutsedge (Cyperus esculentus), read-out: Visual Growth Reduction (%) 14 Days After Application, CYPES
# [10] = DIGSA: crabgrass (Digitaria sanguinalis), read-out: Visual Growth Reduction (%) 14 Days After Application, DIGSA
# [11] = ECHCG: barnyardgrass (Echinochloa crus-galli), read-out: Visual Growth Reduction (%) 14 Days After Application, ECHCG
# [12] = ORYSA: rice (Oryza sativa), crop, read-out: Visual Growth Reduction (%) 14 Days After Application, ORYSA
# [13] = SETFA: giant foxtail (Setaria faberi), read-out: Visual Growth Reduction (%) 14 Days After Application, SETFA
# [14] = SORVU: grain sorghum (Sorghum vulgare), read-out: Visual Growth Reduction (%) 14 Days After Application, SORVU
# [15] = TRZSS (wheat, Triticum aestivum), crop, read-out: Visual Growth Reduction (%) 14 Days After Application, TRZSS
# [16] = ZEAMX: maize, corn (Zea mays), crop, read-out: Visual Growth Reduction (%) 14 Days After Application, ZEAMX
structure (smiles),measurement,setting,value
COc1c(N)nc(-c2ccc(I)cc2)nc1C(=O)O [Compound 88],pest or weed control at 70 g/ha,[1]; [3],75 to 84%
same,pest or weed control at 140 g/ha,[1]; [3],95 to 100%
same,pest or weed control at 70 g/ha,[1]; [4],85 to 94%
same,pest or weed control at 140 g/ha,[1]; [4],85 to 94%
same,pest or weed control at 70 g/ha,[1]; [5],95 to 100%
same,pest or weed control at 140 g/ha,[1]; [5],95 to 100%
same,pest or weed control at 140 g/ha,"[1]; CHEAL: lambsquarters (Chenopodium album), read-out: Visual Growth Reduction (%) 14 Days After Application, CHEAL",95 to 100%
same,pest or weed control at 70 g/ha,[1]; [6],95 to 100%
same,pest or weed control at 140 g/ha,[1]; [6],95 to 100%
same,pest or weed control at 70 g/ha,[1]; [7],85 to 94%
same,pest or weed control at 140 g/ha,[1]; [7],85 to 94%
same,pest or weed control at 70 g/ha,[1]; [8],45 to 59%
same,pest or weed control at 140 g/ha,[1]; [8],60 to 74%
same,pest or weed control at 70 g/ha,[2]; [9],85 to 94%
same,pest or weed control at 140 g/ha,[2]; [9],95 to 100%
same,pest or weed control at 70 g/ha,[2]; [10],0 to 29%
same,pest or weed control at 140 g/ha,[2]; [10],0 to 29%
same,pest or weed control at 70 g/ha,[2]; [11],75 to 84%
same,pest or weed control at 140 g/ha,[2]; [11],75 to 84%
same,pest or weed control at 70 g/ha,[2]; [12],0 to 29%
same,pest or weed control at 140 g/ha,[2]; [12],0 to 29%
same,pest or weed control at 70 g/ha,[2]; [13],60 to 74%
same,pest or weed control at 140 g/ha,[2]; [13],85 to 94%
same,pest or weed control at 70 g/ha,[2]; [14],75 to 84%
same,pest or weed control at 140 g/ha,[2]; [14],85 to 94%
same,pest or weed control at 70 g/ha,[2]; [15],60 to 74%
same,pest or weed control at 140 g/ha,[2]; [15],60 to 74%
same,pest or weed control at 70 g/ha,[2]; [16],45 to 59%
same,pest or weed control at 140 g/ha,[2]; [16],45 to 59%
